We go through 39 compounds from PubChem BioAssay (NCI).

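Interpolation was linear, between the two tested concentrations surrounding the appropriate level; five concentrations were tested over 48 hours in 96-well plates. GI50 is the concentration that inhibits growth by half. The concentration for full growth arrest is given as TGI.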

What all share (assay): NCI anticancer screen, dose series, 48 h
Experiment [1] concerns DMS 273 small cell lung.
In experiment [2] the test system is M19-MEL melanoma.
The test system of experiment [3] is HOP-18 NSCLC.
For experiment [4], the system named is LXFL 529 NSCLC.
For experiment [5], the system named is KM20L2 colon.
In experiment [6] the test system is XF 498 CNS.
The test system of experiment [7] is DLD-1 colon.
Experiment [8] has as its system RXF-631 renal.
For experiment [9], the system named is MDA-N.

Consider `CC(=O)Nc1ccc(OCC(O)CO)cc1` (centres undefined), for which the TGI in experiment [1], in experiment [2], in [3], in [4], in experiment [5] and in [6] was more than 100 µM throughout. The TGI in [7] turned out to be 54.1 µM.

Turning to `COc1ccc(S(=O)(=O)N/N=C/CN2C(=O)c3ccccc3C2=O)cc1`, the TGI in [1], in experiment [2], in [4], in experiment [5], in experiment [6] and in experiment [7] was more than 100 µM in each case.

As for `O=C(OCc1ccccc1)c1ccccc1-c1c2ccc(=O)cc-2oc2cc(OCc3ccccc3)ccc12`, the TGI in [1] is more than 100 µM; in [2], more than 100 µM; in experiment [4] it was more than 100 µM; in [5] it was more than 100 µM; in [6], 33.6 µM; in [7], 39.1 µM.

`CCOC(=O)C1C(=O)c2cccc(OC)c2C2COC(=O)N12` (centres undefined): the TGI in experiment [1], in experiment [2], in experiment [3], in [8], in experiment [4] and in experiment [5] was more than 100 µM in each case. Also, the TGI in experiment [6] and in experiment [7] was more than 100 µM each time.

As for `CC1CCC2[C@@H](C)COC3O[C@]4(C)CCC1C32OO4` (some centres undefined), the TGI in [1], in [3], in [4], in [5] and in [7] was more than 100 µM each time.

`CCc1cccc(CC)c1NC(=O)C1=CNC(C)=C(C(=O)Nc2c(CC)cccc2CC)C1c1ccc(O)c(OC)c1` (centres undefined): the TGI in experiment [2] was more than 100 µM; in [8], more than 100 µM; in experiment [4], more than 100 µM; in experiment [5] it was more than 100 µM; in [6], 67.3 µM; in experiment [7] it was more than 100 µM.

Consider `CCN(CC)c1ccc(N=C2C=CC(=C(C#N)C#N)c3ccccc32)c(C)c1`, for which the TGI was determined as 6.51 µM in [1]; 5.77 µM in [2]; 10.3 µM in experiment [3]; 6.75 µM in [5]; 2.89 µM in experiment [6]; 6.5 µM in experiment [7].

`Cn1c(=O)c2[nH]cnc2n(C)c1=O.[CH2-]C(Cc1cccc2cc(C(=O)O)c(=O)oc12)OC.[Hg+2].[OH-]` (centres undefined): in experiment [9], the GI50 was 17.2 µM and the TGI was 30.9 µM.

For `CN/N=C(/CC(=O)c1sc(NNC(C)=O)nc1C)C(=O)Nc1ccc(OC)cc1OC`, the TGI in experiment [1], in experiment [2], in experiment [4], in experiment [5], in experiment [6] and in experiment [7] was more than 100 µM throughout.

As to `N#CC12CC3(CCC1CCC1(C2)OCCO1)OCCO3` (centres undefined), the TGI in experiment [1], in [2], in experiment [3], in [8], in experiment [4] and in experiment [5] was more than 100 µM in each case. The TGI in experiment [6] and in experiment [7] was more than 100 µM in each case.

`Nc1ncnc2c1ncn2COC/C=C/I`: the TGI in [1], in experiment [2], in experiment [3], in experiment [8], in experiment [4] and in experiment [6] was more than 100 µM each time. Also, in experiment [7], the TGI was more than 100 µM.

For `CCCCCC/C(CC(=O)CCC(=O)NCCc1ccccc1)=N\NC(=O)c1ccc2ccccc2c1O`, the TGI in experiment [2] is 88.4 µM; in experiment [3], 63.9 µM; in experiment [8], more than 100 µM; in experiment [4] it was more than 100 µM; in experiment [5], more than 100 µM; in experiment [6] it was more than 100 µM. The compound also yielded a TGI in [7] of more than 100 µM.

Take `ClCCCN1CCCCC1CCl` (centres undefined): the TGI in [1], in [2], in experiment [3], in experiment [4], in experiment [5] and in experiment [7] was more than 100 µM throughout.

Turning to `O=C1OC(=O)C2C1C1C(c3ccccc3)=C(c3ccccc3)C2(O)C2C(=O)OC(=O)C12` (centres undefined), the TGI in experiment [2], in experiment [4], in [5] and in experiment [7] was more than 100 µM throughout.

Take `COc1c(OC2OC(CO)C(O)C(O)C2O)cc2c(c1OC)-c1ccc(OC)c(=O)cc1[C@@H](NC(C)=O)CC2` (some centres undefined): the TGI in experiment [1], in experiment [2], in [3], in [8], in experiment [4] and in experiment [5] was more than 100 µM in each case. Moreover, the TGI was more than 93 µM in experiment [6] and more than 100 µM in experiment [7].

Take `CCC(=O)OCN1C(=O)C=CC1=O`: the TGI in experiment [9] came to 31.4 µM.

Take `C=C1C(OCCO)OC2O[C@]3(C)CCC4[C@H](C)CCC1C24OO3` (some centres undefined): in experiment [9], the GI50 was 14.8 µM and the TGI was 87.9 µM.

Take `CC(C)CC1NC(=O)C(C(C)C)NC(=O)CC(C)COC(=O)C(CC(C)C)N(C)C(=O)C(C(C)C)NC(=O)C(C(C)C)OC1=O` (centres undefined): the TGI in experiment [9] was more than 50 µM.

As for `C#Cc1ccccc1N1C(=O)C=CC1=O`, the TGI in experiment [2], in experiment [4], in [5] and in experiment [7] was more than 100 µM each time.

As for `CCOc1cc[n+](C(=C=[N-])C#N)cc1`, the TGI in [1], in experiment [2], in [8], in [4], in [5] and in [6] was more than 100 µM in each case. This compound registered a TGI in experiment [7] of more than 100 µM.

`CC(=O)N1CCN(C=S)CC1`: the TGI in [1], in [2], in experiment [8], in experiment [4], in experiment [5] and in experiment [6] was more than 100 µM each time. The compound also had a TGI in [7] of more than 100 µM.

As to `COc1ccc(-c2cc(=O)c3cccnc3[nH]2)cc1`, in experiment [9], the GI50 was 20.8 µM and the TGI came to 78.3 µM.

In experiment [9], `CN(C)c1ccc(/C=N/NC(=O)c2cnc3ccccc3c2)cc1` returned a TGI of more than 100 µM.

With `C/C(=N\NS(=O)(=O)c1ccccc1)c1ccc[n+]([O-])n1`, the TGI in experiment [1], in experiment [2], in experiment [3], in experiment [8], in experiment [4] and in experiment [5] was more than 100 µM each time. The TGI in [7] is more than 100 µM.

For the compound `CCCCCCC(=O)CC(=O)C(=O)Nc1ccccc1C`, the TGI in experiment [1], in [2], in experiment [3], in experiment [8], in [4] and in experiment [5] was more than 100 µM each time. The TGI in [6] and in [7] was more than 100 µM each time.

In the case of `NC(C(=O)O)c1ccc(C(=O)O)cc1` (centres undefined), the TGI in experiment [2], in [8], in experiment [4], in experiment [5], in experiment [6] and in [7] was more than 100 µM throughout.

With `Cc1ccc(SSCCCCS(=O)O)cc1`, the TGI in experiment [1] is 65.7 µM; in experiment [2] it was 64.5 µM; in experiment [3] it was more than 100 µM; in experiment [8], 77.6 µM; in [4], 25.5 µM; in experiment [5], 46.9 µM. For the same compound, the TGI in experiment [6] is 32 µM; in experiment [7] it was more than 100 µM.

On to `N#CCCn1c(CCC(=O)Nc2ccc(Cl)cc2Cl)n[nH]c1=S`, for which the TGI in experiment [1], in experiment [2], in [8], in experiment [4], in experiment [5] and in experiment [6] was more than 100 µM in each case. This compound also came in with a TGI in experiment [7] of more than 100 µM.

As to `COc1ccc([Se]c2ccc(OC)cc2)cc1`, the TGI in experiment [1], in experiment [2], in experiment [3], in [5], in experiment [6] and in [7] was more than 100 µM throughout.

In [9], `CC(=O)c1cccc(NC(=O)/C(=N\NC(=S)NN)C2C(=O)Nc3ccccc3S2=O)c1` (centres undefined) came in with a TGI of more than 100 µM.

As for `CCCCCCCCC(=O)NCCN(CCN)C(=O)CCCCCCCC`, the TGI in experiment [1] was found to be 6.65 µM; in experiment [2] it was 10.6 µM; in [3], 31 µM; in experiment [9], 11.6 µM; in experiment [8], 13 µM; in experiment [4], 7.89 µM. Moreover, the figures for the TGI in experiment [5], in experiment [6] and in [7] were 9.55 µM, 5.43 µM and 10.4 µM, respectively.

For the compound `CC(=O)Nc1cc(CN2CCCCC2)c(O)c2ncccc12`, in experiment [9], the TGI was more than 100 µM.

For `Cc1ccccc1NC(=O)CC(=O)n1nc(-c2ccccc2)c(N=Nc2ccc([N+](=O)[O-])cc2)c1-c1ccccc1`, the TGI in [1] was 49.4 µM; in [3] it was 87.8 µM; in experiment [8], 41.6 µM; in experiment [4], more than 100 µM; in [5], 32.8 µM; in [6] it was 51.7 µM. The compound further yielded a TGI in experiment [7] of more than 100 µM.

`NNC(=O)N/N=C1/C(=O)N(c2ccc(Cl)c(Cl)c2)C(=O)C(=O)C1c1nc2ccccc2o1` (centres undefined): the TGI in experiment [1], in experiment [2], in experiment [3], in [8], in experiment [4] and in experiment [5] was more than 100 µM each time. In addition, the TGI in [7] is more than 100 µM.

On to `O=C1CC2OCC=C3CN4CCC56c7ccccc7N1C5C2C3CC46` (centres undefined) (tested in a mixture with another compound), for which, in [9], the GI50 is more than 50 µg/mL and the TGI is more than 50 µg/mL.

As for `O=S1Cc2ccccc2CSS1` (centres undefined), the TGI in experiment [1] is 24.1 µM; in experiment [2], 44.9 µM; in experiment [3] it was 89.1 µM; in [8] it was 48.5 µM; in [4], 27.2 µM; in experiment [5], 41.9 µM. In addition, the results for the TGI in [6] and in [7] were 34 µM and 41.1 µM, respectively.

For `NCCNc1ncnc2ccc(Cl)cc12`, in experiment [9], the TGI is more than 100 µM.

Consider `CN(C)c1ccc(/C=c2\sc3nnc(Cc4ccccc4)n3c2=O)cc1`, for which the GI50 in [1] was more than 10 µM; in experiment [3] it was more than 100 µM; in experiment [4], more than 100 µM; in [5], more than 100 µM; in experiment [6] it was more than 100 µM; in experiment [7], more than 100 µM. The TGI in experiment [1], in experiment [2], in experiment [3], in experiment [4], in experiment [5] and in experiment [6] was more than 100 µM in each case. Moreover, in experiment [7], the TGI was more than 100 µM.

Regarding `COC(=O)C(C(=O)C(=O)Nc1ccc(N)cc1[N+](=O)[O-])c1nc2ccc(Cl)cc2[nH]c1=O` (centres undefined), the TGI in experiment [1], in [2], in [3], in experiment [5], in experiment [6] and in [7] was more than 100 µM in each case.
